Results published in patent publication US12433877B2, “Sustained release drug delivery systems and related methods” (Durect Corporation, priority 2021, dated 2025).
Values joined by “and” are separate entries in the source; they are usually repeats but may differ in a detail not shown here. Equal values may be shown once.

Experiments:
[1] = test system: pregnant rabbits; assay: Embryo-fetal development study, subcutaneous, rabbits; type: in vivo; conditions: pregnant rabbits, subcutaneous; MRHD 660 mg
Experimental: (§1) There are no studies conducted with Formulation A in pregnant women. […] Based on animal data, advise pregnant women of the potential risks to a fetus. [see Data]
Bupivacaine hydrochloride was administered subcutaneously to rats at doses of 4.4, 13.3, & 40 mg/kg and to rabbits at doses of 1.3, 5.8, & 22.2 mg/kg during the period of organogenesis (implantation to closure of the hard palate). The high doses are approximately 0.6 times the daily maximum recommended human dose (MRHD) of 660 mg/day on a mg/m^2 body surface area (BSA) basis.

[2] = clinical; conditions: human, in vivo
Experimental: Additionally, alpha 1 acid glycoprotein (AAG) plasma concentrations were measured in these two groups for correlation with free bupivacaine concentrations.
Using non-compartmental methods the following PK parameters were calculated from the plasma concentrations of each compound: area under the plasma concentration vs. time curve until the last measured concentration (AUCt), area under the plasma concentration vs. time curve extrapolated until infinity (AUCinf), the maximum concentration (Cmax), the time of its occurrence (tmax) and the apparent terminal elimination half-life (t1/2). […] The average […] of bupivacaine was approximately 5.2%; free bupivacaine plasma concentrations generally paralleled those of total bupivacaine. There was a large interindividual variability of Cmax of both total and free bupivacaine. […] Note: Table 1.5 presents Geometric mean, ±68th percentile for Cmax rather than absolute min,max.

[3] = test system: bacterial reverse mutation; assay: In vitro bacterial reverse mutation assay (Ames assay); type: cell-based
Source text: (§2) Bupivacaine was negative in the in vitro bacterial reverse mutation assay (Ames assay), the in vitro chromosomal aberration assay (human peripheral blood lymphocytes, and the in vivo rat micronucleus assay.

[4] = test system: human peripheral blood lymphocytes; assay: In vitro chromosomal aberration assay; type: cell-based
Source text: as §2

[5] = test system: rats; assay: Rat pre- and post-natal development study; type: in vivo; conditions: rat; MRHD 660 mg
Experimental: as §1
The high dose is approximately 0.6 times the daily MRHD of 660 mg/day on a BSA basis.

[6] = cited from earlier work
[7] = test system: rat micronucleus; assay: In vivo rat micronucleus assay
Source text: as §2

[8] = clinical; conditions: human, in vivo; remark: listed apart in the source
Source text: Both bupivacaine and benzyl alcohol have been reported to be excreted in human milk.
Bupivacaine appears to cross the placenta by passive diffusion. The rate and degree of diffusion is governed by (1) the degree of plasma protein binding, (2) the degree of ionization, and (3) the degree of lipid solubility. Fetal/maternal ratios of local anesthetics appear to be inversely related to the degree of plasma protein binding, because only the free, unbound drug is available for placental transfer. Bupivacaine with a high protein binding capacity (95%) has a low fetal/maternal ratio (0.2 to 0.4). The extent of placental transfer is also determined by the degree of ionization and lipid solubility of the drug. Lipid soluble, non-ionized drugs such as bupivacaine readily enter the fetal blood from the maternal circulation.
The kidney is the main excretory organ for most local anesthetics and their metabolites. Urinary excretion is affected by urinary perfusion and factors affecting urinary pH. Only 6% of bupivacaine is excreted unchanged in the urine.

[9] = test system: patients undergoing elective arthroscopic shoulder surgery; assay: Example 1 / Study 1: pain intensity and opioid rescue after arthroscopic shoulder surgery; type: in vivo, human; conditions: 0-72 hours after surgery; ITT
[10] = Example 14: peroxide content of SAIB / benzyl alcohol versus bupivacaine N-oxide; type: physicochemical
Experimental: Placebo compositions were composed of 75% w/w sucrose acetate isobutyrate (SAIB), and 25% w/w benzyl alcohol. Bupivacaine N-oxide in the sustained release bupivacaine compositions can be formed by an oxidative reaction between bupivacaine and peroxides.
The peroxide content for several lots of sucrose acetate isobutyrate were determined by potentiometric titration involving iodometric titration. The bupivacaine N-oxide levels in samples of Formulation A were determined using HPLC with UV detection.
All of the benzyl alcohol compositions had peroxide values of less than […]. The peroxide value can be converted to peroxide content, expressed as hydrogen peroxide, by multiplying PV by 17. […] The maximum contribution to peroxide content from benzyl alcohol is 85 ppm divided by 3, or 28 ppm.

[11] = Example 9: 2,6-dimethylaniline standard in different color glassware, electrochemical detection; type: physicochemical; conditions: for Observed Concentration of Standard: prepared at 3 ng/mL
Experimental: For analysis, an aliquot of formulation was diluted 250 times with an aqueous buffer/methanol/acetonitrile diluent. After solubilization of the sample, a small aliquot is transferred into an HPLC vial for analysis using an electrochemical detector.
A series of experiments was conducted examining the effects of amber and red colored glassware on the stability of the 2,6-dimethylaniniline reference standard, using electrochemical detection, at a concentration of 3 ng/mL in an aqueous buffer/methanol solution.
In Experiment 1, the 2,6-dimethylaniline was prepared at a concentration of 3 ng/mL in a clear, colorless glass 100 mL volumetric flask. Aliquots were transferred into clear HPLC glass vials, and assayed against external standards. The 3 injections of the 2,6-dimethylaniline were consistently near 3 ng/mL.
In Experiment 2, the 2,6-dimethylaniline solution at 3 ng/mL prepared in a clear, colorless glass 100 mL volumetric flask was transferred to amber HPLC vials.
An aliquot was transferred into a clear HPLC glass vial, and assayed against external standards. The sample injection had the same 2,6-dimethylaniline concentration value as that in Experiment 1.
In Experiment 4, the 2,6-dimethylaniline solution at 3 ng/mL prepared in the red colored glass 100 mL volumetric flask coated with RAY-SORB® was transferred to an amber HPLC vial.

[12] = Example 11: metal content by ICP-MS; type: physicochemical
Experimental: Sucrose acetate isobutyrate was tested for metal content as follows. The sample was prepared with a 0.1 g weighed portion mixed with 2 mL nitric acid and 0.5 mL hydrochloric acid for 1 hour on a block digestor set at 110° C. After cooling, 0.5 mL of 30% hydrogen peroxide was added, and the digestion resumed for 30 minutes (the material appeared dissolved). After cooling, internal standard solution was added and dilution with purified water to 20 g produced a solution for ICP-MS analysis. The results are shown below:
Formulation A was compounded using steel compounding tanks. Silicone tubing was used to transfer Formulation A. Formulation A was filled into glass vials, which were then sealed with fluorocarbon-coated stoppers.
Formulation A was tested for metal content as follows. The sample was prepared with a 0.2 g weighed portion mixed with 2 mL nitric acid, 1 mL hydrochloric acid, and 1 mL hydrofluoric acid, then digested in a closed-vessel microwave system (the material appeared dissolved). After cooling, internal standard solution was added and dilution with purified water to 50 g produced a solution for ICP-MS analysis.

[13] = Example 16: in vitro cumulative release of bupivacaine (USP Apparatus II); type: physicochemical; conditions: oven at 225° C. for 4 hours
Source text: To compare dissolution profiles, formulations having 12% w/w bupivacaine but differing ratios of sucrose acetate isobutyrate (SAIB)/solvent were made and tested as described in the below Methods and Materials. Table 16.1 is a summary of the compositions of the formulations tested.
To compare dissolution profiles, formulations having 12% w/w bupivacaine but differing ratios of sucrose acetate isobutyrate (SAIB)/solvent were made and tested as described below. Table 16.3 is a summary of the compositions of the formulations tested.
To compare dissolution profiles, a control formulation and a heat-stressed SAIB formulation were made and tested as described the below Methods and Materials. Both the control and heat-stressed SAIB formulations nominally consisted of 12% w/w bupivacaine, 22% w/w benzyl alcohol, and 66% w/w SAIB.
The bupivacaine formulations, other than the heat-stressed formulation, were prepared by dissolving appropriate amounts of bupivacaine in appropriate amounts of benzyl alcohol (BA), adding an appropriate amount of sucrose acetate isobutyrate (SAIB), and stirring not less than 45 minutes at about 35° C. For the heat-stressed SAIB formulation, the same process was followed except the SAIB was pre-heated in an oven at 225° C. for 4 hours before use. […]
Dissolution was measured using a USP Apparatus II. […]

In the case of `CCCCN1CCCCC1C(=O)Nc1c(C)cccc1C` (centres unmarked) [Bupivacaine, 1-butyl-N-(2,6-dimethylphenyl)-2-piperidinecarboxamide], the “Dose with embryo-fetal lethality” value [1] is reported as 0.6 times the maximum recommended human dose, the fraction unbound [2] is reported as ~0.052 and the “Bacterial reverse mutation assay (Ames assay) result” value [3] is reported as “negative”. The “Chromosomal aberration assay result” value [4] was “negative”, the “Dose with decreased pup survival” value [5] was 0.6 times the maximum recommended human dose and the “Excreted unchanged in the urine” value ([6]; human, in vivo) was 6%. For the same compound, the Protein binding capacity ([6]; plasma) was 95%, the “Rat micronucleus assay result” value [7] was “negative” and the Cmax [8] was 2850 ng/mL. The “Total IV morphine equivalent dose of opioid rescue medication, median” value [9] was 8 mg.
In the case of `OCc1ccccc1` [benzyl alcohol], the “Peroxide content, expressed as hydrogen peroxide” value ([10]; PV multiplied by 17) is reported as < 8.5 ppm, the “Peroxide value (PV)” value ([10]; all lots) is reported as “less than 0.5” and the “Effective peroxide contribution to formation of bupivacaine N-oxide” value ([10]; divided by 3) is reported as < 2.8 ppm.
In the case of `Cc1cccc(C)c1N` [2,6-dimethylaniline], the “2,6-dimethylaniline concentration found” value ([11]; Experiment 1: clear flask, clear HPLC vials, 3 ng/mL prepared) is reported as ~3 ng/mL, the “2,6-dimethylaniline concentration relative to Experiment 1” value ([11]; Experiment 3: red RAY-SORB flask, clear HPLC vial) is reported as “same” and the “2,6-dimethylaniline content relative to Experiments 1 and 3” value ([11]; Experiment 4: red RAY-SORB flask, amber HPLC vial) is reported as “approximately 5 times higher”.
In the case of `Cc1cccc(C)c1N` [2,6-Dimethlylaniline Standard], the “Observed Concentration of Standard” value ([11]; Experiment 1, Clear volumetric flask, Clear HPLC vial) is reported as 3.0 ng/mL and 3.1 ng/mL, the “Observed Concentration of Standard” value ([11]; Experiment 2, Clear volumetric flask, Amber HPLC vial) is reported as 24.5 ng/mL and 28.4 ng/mL and 34.6 ng/mL and 38.1 ng/mL and the “Observed Concentration of Standard” value ([11]; Experiment 3, Red volumetric flask, Clear HPLC vial) is reported as 3.0 ng/mL. The “Observed Concentration of Standard” value ([11]; Experiment 4, Red volumetric flask, Amber HPLC vial) was 14.9 ng/mL.
With sucrose acetate isobutyrate [SAIB] the Gold ([12]; Detection Limit 0.02) was 0.4 ppm, the Tin ([12]; Detection Limit 0.04) was 0.0 ppm and the Iron ([12]; Detection Limit 1) was 2 ppm. For the same compound, the “Peroxide content in SAIB corresponding to 0.8% bupivacaine N-oxide” value ([10]; linear regression, FIG. 14) was 232.5 ppm, the “Peroxide in SAIB corresponding to the 1.0% specification limit for bupivacaine N-oxide” value ([10]; linear regression, FIG. 14) was 296.4 ppm and the “SAIB remaining after pre-heating” value [13] was 98%.
